Assay results published in PubChem BioAssay (NCI).
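The compound was tested at five concentrations on cells cultured in 96-well plates, with a 48-hour exposure period. Here, GI50 denotes the concentration required for 50% inhibition of growth. Definition used: TGI = concentration required for complete inhibition of growth.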

Tests used:
Test in all cases: DTP human tumour cell line panel, 48 h
[1] = test system: MDA-MB-435
[2] = test system: HT29 colon
[3] = test system: OVCAR-4 ovarian
[4] = test system: NCI-H522 lung
[5] = test system: M14 melanoma
[6] = test system: U251 CNS
[7] = test system: MOLT-4 leukemia
[8] = test system: SW-620 colon
[9] = test system: NCI-H460 lung
[10] = test system: NCI/ADR-RES ovarian
[11] = test system: OVCAR-8 ovarian
[12] = test system: SK-OV-3 ovarian
[13] = test system: DU-145 prostate
[14] = test system: UO-31 renal
[15] = test system: HL-60(TB) leukemia
[16] = test system: MDA-MB-231 breast
[17] = test system: HCT-15 colon
[18] = test system: EKVX NSCLC
[19] = test system: SF-268 CNS
[20] = test system: SR leukemia
[21] = test system: OVCAR-3 ovarian
[22] = test system: SK-MEL-5 melanoma
[23] = test system: A549 NSCLC
[24] = test system: T-47D breast
[25] = test system: SF-295 CNS
[26] = test system: HOP-62 NSCLC
[27] = test system: IGROV1 ovarian
[28] = test system: UACC-62 melanoma
[29] = test system: SN12C renal
[30] = test system: PC-3 prostate
[31] = test system: NCI-H23 lung
[32] = test system: SK-MEL-2 melanoma
[33] = test system: HCT-116 colon
[34] = test system: RXF 393 renal
[35] = test system: MCF7 breast
[36] = test system: TK-10 renal
[37] = test system: A498 renal
[38] = test system: UACC-257 melanoma
[39] = test system: CCRF-CEM leukemia
[40] = test system: KM12 colon
[41] = test system: RPMI-8226 leukemia
[42] = test system: HCC-2998 colon
[43] = test system: HOP-92 NSCLC
[44] = test system: COLO 205 colon
[45] = test system: SNB-75 CNS
[46] = test system: MALME-3M melanoma
[47] = test system: K-562 leukemia
[48] = test system: ACHN renal
[49] = test system: HS 578T breast
[50] = test system: OVCAR-5 ovarian
[51] = test system: 786-0 renal
[52] = test system: BT-549 breast
[53] = test system: SNB-19 CNS
[54] = test system: NCI-H226 lung
[55] = test system: CAKI-1 renal
[56] = test system: SF-539 CNS
[57] = test system: LOX IMVI melanoma

Structure (SMILES): CCN(CCCNC(=O)Cc1cc(=O)oc2cc(N(C)C)ccc12)CCNc1ccnc2cc(Cl)ccc12
- GI50 [1]: 2.29 µM
- TGI [1]: 5.78 µM
- GI50 [2]: 3.39 µM
- TGI [2]: 12.1 µM
- GI50 [3]: 15 µM
- TGI [3]: 41.4 µM
- GI50 [4]: 4.4 µM
- TGI [4]: 16.2 µM
- GI50 [5]: 2.08 µM
- TGI [5]: 3.85 µM
- GI50 [6]: 3.4 µM
- TGI [6]: 12.6 µM
- GI50 [7]: 8.13 µM
- TGI [7]: 28 µM
- GI50 [8]: 5.84 µM
- TGI [8]: 19.4 µM
- GI50 [9]: 9.54 µM
- TGI [9]: 22.3 µM
- GI50 [10]: 30.7 µM
- TGI [10]: > 100 µM
- GI50 [11]: 8.29 µM
- TGI [11]: 61.7 µM
- GI50 [12]: 23.9 µM
- TGI [12]: 56.5 µM
- GI50 [13]: 18.4 µM
- TGI [13]: 47.7 µM
- GI50 [14]: 15.5 µM
- TGI [14]: 40.6 µM
- GI50 [15]: 16.3 µM
- TGI [15]: 44.2 µM
- GI50 [16]: 3.47 µM
- TGI [16]: 16.9 µM
- GI50 [17]: 10.4 µM
- TGI [17]: 29.5 µM
- GI50 [18]: 22.2 µM
- TGI [18]: 70 µM
- GI50 [19]: 11.3 µM
- TGI [19]: 30.5 µM
- GI50 [20]: 2.6 µM
- TGI [20]: 6.64 µM
- GI50 [21]: 14 µM
- TGI [21]: 33.2 µM
- GI50 [22]: 1.55 µM
- TGI [22]: 2.93 µM
- GI50 [23]: 11.3 µM
- TGI [23]: 28.6 µM
- GI50 [24]: 12.5 µM
- TGI [24]: 39.8 µM
- GI50 [25]: 12.4 µM
- TGI [25]: 27.6 µM
- GI50 [26]: 13.2 µM
- TGI [26]: 32.5 µM
- GI50 [27]: 13.1 µM
- TGI [27]: 35.1 µM
- GI50 [28]: 3.36 µM
- TGI [28]: 11.9 µM
- GI50 [29]: 13.9 µM
- TGI [29]: 36 µM
- GI50 [30]: 13.8 µM
- TGI [30]: 37.9 µM
- GI50 [31]: 14 µM
- TGI [31]: 34.3 µM
- GI50 [32]: 12.6 µM
- TGI [32]: 26.2 µM
- GI50 [33]: 4.86 µM
- TGI [33]: 17 µM
- GI50 [34]: 1.72 µM
- TGI [34]: 5.15 µM
- GI50 [35]: 7.42 µM
- TGI [35]: 22.7 µM
- GI50 [36]: 6.46 µM
- TGI [36]: 20.3 µM
- GI50 [37]: 12.4 µM
- TGI [37]: > 100 µM
- GI50 [38]: 1.79 µM
- TGI [38]: 3.65 µM
- GI50 [39]: 4.38 µM
- TGI [39]: 34 µM
- GI50 [40]: 12.5 µM
- TGI [40]: 28.1 µM
- GI50 [41]: 12.4 µM
- TGI [41]: 38.8 µM
- GI50 [42]: 7.87 µM
- TGI [42]: 21.3 µM
- GI50 [43]: 1.48 µM
- TGI [43]: 13.8 µM
- GI50 [44]: 6.54 µM
- TGI [44]: 20.8 µM
- GI50 [45]: 6.44 µM
- TGI [45]: 25.6 µM
- GI50 [46]: 1.83 µM
- TGI [46]: 3.86 µM
- GI50 [47]: 2.78 µM
- TGI [47]: 7.56 µM
- GI50 [48]: 9.21 µM
- TGI [48]: 24.3 µM
- GI50 [49]: 13.3 µM
- TGI [49]: 32.1 µM
- GI50 [50]: 16.5 µM
- TGI [50]: 38.2 µM
- GI50 [51]: 16 µM
- TGI [51]: 36.8 µM
- GI50 [52]: 14.4 µM
- TGI [52]: 34.6 µM
- GI50 [53]: 18.9 µM
- TGI [53]: 52.7 µM
- GI50 [54]: 10.9 µM
- TGI [54]: 34.4 µM
- GI50 [55]: 15.6 µM
- TGI [55]: 39.5 µM
- GI50 [56]: 1.69 µM
- TGI [56]: 3.42 µM
- GI50 [57]: 2 µM
- TGI [57]: 5.01 µM
